Consider twelve molecules from patent publication US11130756B2, “[1,2,4]Triazolo[4,3-A]pyridinyl substituted indole compounds” (BRISTOL-MYERS SQUIBB COMPANY, priority 2017, dated 2021).

Each structure is given as a SMILES string. Some results are limits rather than exact numbers.

Common to all, as to assay type: cell-based
In test [1] the target is T1, human TLR7 (Homo sapiens, UniProt Q9NYK1).
T1 construct: host or cells: HEK-Blue cells
T1 sequence (Q9NYK1 27-1049): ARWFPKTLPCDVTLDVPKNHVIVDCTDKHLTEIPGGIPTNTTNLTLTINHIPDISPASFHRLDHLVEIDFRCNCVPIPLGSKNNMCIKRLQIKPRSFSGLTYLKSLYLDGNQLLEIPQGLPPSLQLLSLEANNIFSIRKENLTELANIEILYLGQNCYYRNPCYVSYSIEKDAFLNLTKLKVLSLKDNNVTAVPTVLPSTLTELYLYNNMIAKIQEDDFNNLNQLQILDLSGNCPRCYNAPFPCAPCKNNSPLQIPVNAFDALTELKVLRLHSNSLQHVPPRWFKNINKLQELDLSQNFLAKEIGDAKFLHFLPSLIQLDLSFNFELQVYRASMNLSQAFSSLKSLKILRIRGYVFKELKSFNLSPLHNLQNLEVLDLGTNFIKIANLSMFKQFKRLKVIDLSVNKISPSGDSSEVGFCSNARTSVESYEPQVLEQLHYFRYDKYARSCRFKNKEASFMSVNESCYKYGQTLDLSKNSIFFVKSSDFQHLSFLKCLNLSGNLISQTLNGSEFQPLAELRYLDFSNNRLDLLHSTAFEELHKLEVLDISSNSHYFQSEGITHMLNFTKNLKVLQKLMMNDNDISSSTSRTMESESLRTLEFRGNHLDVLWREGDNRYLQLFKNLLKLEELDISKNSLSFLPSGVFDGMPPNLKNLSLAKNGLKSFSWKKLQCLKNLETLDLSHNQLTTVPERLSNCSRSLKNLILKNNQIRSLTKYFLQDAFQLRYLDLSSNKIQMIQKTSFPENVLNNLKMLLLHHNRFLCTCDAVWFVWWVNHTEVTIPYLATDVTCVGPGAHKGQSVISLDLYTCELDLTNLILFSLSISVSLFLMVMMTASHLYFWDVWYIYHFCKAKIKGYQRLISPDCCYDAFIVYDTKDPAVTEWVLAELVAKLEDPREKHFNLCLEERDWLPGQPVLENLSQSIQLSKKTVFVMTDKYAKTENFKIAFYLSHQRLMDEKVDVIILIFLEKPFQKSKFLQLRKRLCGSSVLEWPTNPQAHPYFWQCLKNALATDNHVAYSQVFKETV
Kind of test: TLR7 inhibition reporter assay (HEK-Blue, SEAP). The note with it: HEK-Blue cells overexpressing human TLR7, gardiquimod 7.5 μM, 22 hour incubation. The procedure, abridged: (§1)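 Screening used HEK-Blue cells overexpressing one human TLR (7, 8 or 9) and an IFN-β minimal promoter–NF-κB/AP-1 SEAP construct. Stimulation lasted 22 h at 37 °C with receptor-specific agonist: gardiquimod, R848 or ODN2006 at 7.5 μM, 15.9 μM and 5 nM.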

The target of test [2] is T2, human TLR8 (Homo sapiens, UniProt Q9NR97).
T2 construct: host or cells: HEK-Blue cells
T2 sequence (Q9NR97 27-1041): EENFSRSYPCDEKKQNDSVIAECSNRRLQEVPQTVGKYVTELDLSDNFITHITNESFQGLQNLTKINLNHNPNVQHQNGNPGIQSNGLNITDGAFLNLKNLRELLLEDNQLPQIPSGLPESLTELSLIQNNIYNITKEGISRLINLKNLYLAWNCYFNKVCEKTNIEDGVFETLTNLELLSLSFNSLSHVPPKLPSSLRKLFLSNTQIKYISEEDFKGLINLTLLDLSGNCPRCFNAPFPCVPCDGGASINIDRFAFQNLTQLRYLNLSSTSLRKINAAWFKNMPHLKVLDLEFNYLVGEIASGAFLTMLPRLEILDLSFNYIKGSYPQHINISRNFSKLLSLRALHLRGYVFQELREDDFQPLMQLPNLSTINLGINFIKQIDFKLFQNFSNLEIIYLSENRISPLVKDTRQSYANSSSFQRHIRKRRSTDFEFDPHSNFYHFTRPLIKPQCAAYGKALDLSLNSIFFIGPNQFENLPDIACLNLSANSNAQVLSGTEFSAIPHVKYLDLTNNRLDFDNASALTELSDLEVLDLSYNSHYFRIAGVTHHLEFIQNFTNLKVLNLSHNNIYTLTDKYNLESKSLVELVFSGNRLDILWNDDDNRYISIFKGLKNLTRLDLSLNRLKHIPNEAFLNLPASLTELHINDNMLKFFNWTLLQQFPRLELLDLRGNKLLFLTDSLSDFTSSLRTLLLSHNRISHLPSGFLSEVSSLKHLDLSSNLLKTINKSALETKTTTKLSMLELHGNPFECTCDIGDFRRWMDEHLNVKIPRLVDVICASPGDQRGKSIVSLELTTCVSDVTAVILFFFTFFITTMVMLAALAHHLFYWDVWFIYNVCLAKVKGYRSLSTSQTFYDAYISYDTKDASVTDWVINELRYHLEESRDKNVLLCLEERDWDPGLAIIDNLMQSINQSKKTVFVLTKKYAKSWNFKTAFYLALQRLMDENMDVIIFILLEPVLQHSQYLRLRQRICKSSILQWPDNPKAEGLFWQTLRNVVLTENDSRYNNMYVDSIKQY
Kind of test: TLR8 inhibition reporter assay (HEK-Blue, SEAP). As to conditions: HEK-Blue cells overexpressing human TLR8, R848 15.9 μM, 22 hour incubation. The procedure, abridged:
as §1

The target in test [3] is T3, human TLR9 (Homo sapiens, UniProt Q9NR96).
T3 construct: host or cells: HEK-Blue cells
T3 sequence (Q9NR96 26-1032): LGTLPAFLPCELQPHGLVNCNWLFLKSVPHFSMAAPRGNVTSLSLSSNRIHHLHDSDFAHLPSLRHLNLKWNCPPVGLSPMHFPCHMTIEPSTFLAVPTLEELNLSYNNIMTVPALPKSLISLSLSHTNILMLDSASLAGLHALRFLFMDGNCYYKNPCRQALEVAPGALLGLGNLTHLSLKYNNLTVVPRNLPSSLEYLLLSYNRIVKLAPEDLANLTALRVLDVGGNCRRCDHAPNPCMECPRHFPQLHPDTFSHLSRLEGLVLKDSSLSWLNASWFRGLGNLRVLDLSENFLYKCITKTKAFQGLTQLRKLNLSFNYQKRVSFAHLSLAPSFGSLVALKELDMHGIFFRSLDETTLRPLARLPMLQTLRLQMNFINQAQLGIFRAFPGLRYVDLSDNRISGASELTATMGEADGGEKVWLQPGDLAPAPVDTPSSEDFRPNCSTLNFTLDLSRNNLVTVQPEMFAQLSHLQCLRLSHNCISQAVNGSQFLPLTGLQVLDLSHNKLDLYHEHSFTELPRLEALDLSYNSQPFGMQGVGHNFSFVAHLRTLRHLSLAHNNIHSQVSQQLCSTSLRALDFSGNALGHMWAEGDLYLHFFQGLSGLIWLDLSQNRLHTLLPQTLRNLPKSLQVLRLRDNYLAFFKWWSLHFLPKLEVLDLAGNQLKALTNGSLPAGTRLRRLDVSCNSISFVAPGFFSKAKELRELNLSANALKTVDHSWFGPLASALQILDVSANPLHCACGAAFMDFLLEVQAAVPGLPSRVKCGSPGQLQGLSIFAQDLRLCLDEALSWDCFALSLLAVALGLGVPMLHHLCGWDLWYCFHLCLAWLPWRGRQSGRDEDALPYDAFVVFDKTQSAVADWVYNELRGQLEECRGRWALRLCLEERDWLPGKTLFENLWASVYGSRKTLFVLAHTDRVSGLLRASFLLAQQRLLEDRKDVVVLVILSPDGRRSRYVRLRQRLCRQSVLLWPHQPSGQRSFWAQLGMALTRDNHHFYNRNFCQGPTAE
Kind of test: TLR9 inhibition reporter assay (HEK-Blue, SEAP). The note with it: HEK-Blue cells overexpressing human TLR9, ODN2006 5 nM, 22 hour incubation. The procedure, abridged: as §1

`Cc1c(-c2[nH]c3ccc(C4CCN(C5CCOCC5)CC4)cc3c2C(C)C)cn2cnnc2c1Cl` [Example 81, 8-chloro-6-(3-isopropyl-5-(1-(tetrahydro-2H-pyran-4-yl)piperidin-4-yl)-1H-indol-2-yl)-7-methyl-[1,2,4]triazolo[4,3-a]pyridine]: the figures for the half-maximal inhibitory concentration (IC50) in test [1], in test [2] and in test [3] were 2.5 nM, 10.8 nM and 2260 nM, respectively.
The corresponding values for `Cc1c(-c2[nH]c3ccc(C4CCN(C5COC5)CC4)cc3c2C(C)C)cn2cnnc2c1Cl` [Example 82, 8-chloro-6-(3-isopropyl-5-(1-(oxetan-3-yl)piperidin-4-yl)-1H-indol-2-yl)-7-methyl-[1,2,4] triazolo[4,3-a]pyridine] are 4.9 nM, 153 nM and at least 50000 nM.
The corresponding values for `Cc1c(-c2[nH]c3ccc(C4CCN(Cc5cn(C)nn5)CC4)cc3c2C(C)C)cn2cnnc2c1C` [Example 83, 6-(3-isopropyl-5-(1-((1-methyl-1H-1,2,3-triazol-4-yl)methyl)piperidin-4-yl)-1H-indol-2-yl)-7,8-dimethyl-[1,2,4]triazolo[4,3-a]pyridine] are 3.4 nM, 7.2 nM and 875 nM.
Turning to `Cc1c(-c2[nH]c3ccc(C4CCN(Cc5cn(C)nn5)CC4)cc3c2C(C)C)cn2cnnc2c1Cl` [Example 84, 8-chloro-6-(3-isopropyl-5-(1-((1-methyl-1H-1,2,3-triazol-4-yl)methyl)piperidin-4-yl)-1H-indol-2-yl)-7-methyl-[1,2,4]triazolo[4,3-a]pyridine], the IC50 in test [1] was found to be 5.7 nM; in test [2], 21.6 nM; in test [3], 1110 nM.
On to `Cc1c(-c2[nH]c3ccc(C4CCN(C5CCOC(C)(C)C5)CC4)cc3c2C(C)C)cn2cnnc2c1C` (stereo not drawn) [Example 85, 6-(5-(1-(2,2-dimethyltetrahydro-2H-pyran-4-yl)piperidin-4-yl)-3-isopropyl-1H-indol-2-yl)-7,8-dimethyl-[1,2,4]triazolo[4,3-a]pyridine], for which the IC50 in test [1] stood at 2.5 nM; in test [2], 6.7 nM; in test [3], 1990 nM.
The corresponding values for `COc1cc(-c2[nH]c3ccc(C4CCN(C5COC5)CC4)cc3c2C(C)C)cn2cnnc12` [Example 86, 6-(3-isopropyl-5-(1-(oxetan-3-yl)piperidin-4-yl)-1H-indol-2-yl)-8-methoxy-[1,2,4]triazolo[4,3-a]pyridine] are 1.2 nM, 26.8 nM and 6200 nM.
Turning to `Cc1c(-c2[nH]c3ccc(C4CCN(C5CC(C)OC(C)C5)CC4)cc3c2C(C)C)cn2cnnc2c1C` (stereo not drawn) [Example 87, 6-(5-(1-(2,6-dimethyltetrahydro-2H-pyran-4-yl)piperidin-4-yl)-3-isopropyl-1H-indol-2-yl)-7,8-dimethyl-[1,2,4]triazolo[4,3-a]pyridine], the IC50 in test [1] was found to be 2.4 nM; in test [2], 12.8 nM; in test [3], 1300 nM.
The corresponding values for `COc1cc(-c2[nH]c3ccc(C4CCN(C5CCOCC5)CC4)cc3c2C(C)C)cn2cnnc12` [Example 88, 6-(3-isopropyl-5-(1-(tetrahydro-2H-pyran-4-yl)piperidin-4-yl)-1H-indol-2-yl)-8-methoxy-[1,2,4]triazolo[4,3-a]pyridine] are 1.9 nM, 33.4 nM and 344 nM.
The corresponding values for `COc1ncc(CN2CCC(c3ccc4[nH]c(-c5cn6cnnc6c(C)c5C)c(C(C)C)c4c3)CC2)cn1` [Example 89, 6-(3-isopropyl-5-(1-((2-methoxypyrimidin-5-yl)methyl)piperidin-4-yl)-1H-indol-2-yl)-7,8-dimethyl-[1,2,4]triazolo[4,3-a]pyridine] are 0.1 nM, 3.3 nM and 773 nM.
The corresponding values for `COc1cc(-c2[nH]c3ccc(C4CCN(CC5(C)COC5)CC4)cc3c2C(C)C)cn2cnnc12` [Example 90, 6-(3-isopropyl-5-(1-((3-methyloxetan-3-yl)methyl)piperidin-4-yl)-1H-indol-2-yl)-8-methoxy-[1,2,4]triazolo[4,3-a]pyridine] are 17.3 nM, 245 nM and 1500 nM.
`Cc1ncc(CN2CCC(c3ccc4[nH]c(-c5cn6cnnc6c(C)c5C)c(C(C)C)c4c3)CC2)cn1` [Example 91, 6-(3-isopropyl-5-(1-((2-methylpyrimidin-5-yl)methyl)piperidin-4-yl)-1H-indol-2-yl)-7,8-dimethyl-[1,2,4]triazolo[4,3-a]pyridine]: the IC50 in test [1] amounted to 1.5 nM; in test [2], 4.6 nM; in test [3] it was 1810 nM.
With `Cc1c(-c2[nH]c3ccc(C4CCN(C5CC(C)OC(C)C5)CC4)cc3c2C(C)C)cn2cnnc2c1C` (stereo not drawn) [Example 92, 6-(5-(1-(2,6-dimethyltetrahydro-2H-pyran-4-yl)piperidin-4-yl)-3-isopropyl-1H-indol-2-yl)-7,8-dimethyl-[1,2,4]triazolo[4,3-a] pyridine], the figures for the IC50 in test [1], in test [2] and in test [3] were 5.6 nM, 15.2 nM and 3270 nM, respectively.
